{
  "source": "patent US20070123462A1",
  "about": "“Effects of tissue transglutaminase on beta-amyloid-induced apoptosis” (Cornell Research Foundation, Inc., priority 2005, published 2007)",
  "key": {"[1]": {"system": "caspase-3", "experiment": "Caspase activation immunoblot in SH-SY5Y cells", "type": "cell-based, human", "text": "FIGS. 6A-B depict characterization of β-amyloid1-42. […] The β-amyloid was either directly reconstituted in Me2SO or was pre-treated with hexafluoroisopropanol (HFIP) and dessicated prior to reconstitution in Me2SO. […] Activated caspase-3 was detected using a rabbit polyclonal antibody from Cell Signaling (Danvers, Mass.).\nFIGS. 9A-B show changes in transglutaminase activity during β-amyloid-induced apoptosis. […] Experimental conditions in FIG. 9B were similar to those described in FIG. 9A, except cells were treated with H2O2 rather than BA for 24 hours."}, "[2]": {"system": "TGase", "experiment": "In vivo (cellular) transamidation assay with 5-(biotin-amido)-pentylamine", "type": "cell-based, human", "description": "The in vivo transamidation assays were performed as previously described in Antonyak et al., J. Biol. Chem. 279:41461-41467 (2004), which is hereby incorporated by reference in its entirety. […] The membranes were then incubated with horseradish-peroxidase-conjugated streptavidin (2 mg/ml; Pierce Inc., Rockford, Ill.) (diluted 1:2000) in BBST for 2 hours at room temperature, followed by washing (three times) for 20 minutes with BBST."}, "[3]": {"system": "RA-differentiated SH-SY5Y cells", "type": "cell-based", "description": "(§1) To induce differentiation, human SH-SY5Y cells were cultured in phenol red-free, low serum media with 20 μM all-trans-retinoic acid (RA; Sigma) every other day for 6 days. When assaying cell viability, the cells were plated in 96-well dishes at a seeding density of approximately 5×10^3 cells per well, differentiated with 20 μM RA, and then treated with either media alone, 25 μM monodansyl cadaverine (MDC), β-amyloid1-42 (2.5, 5, and 10 μM) (HPLC-purified from American Peptide, Sunnyvale, Calif.), or with 25 μM MDC and different concentrations of β-amyloid1-42. Typically, β-amyloid1-42 was reconstituted in […] and then further diluted into cell culture media, using conditions that have been reported to give rise primarily to β-amyloid oligomers and large aggregates rather than fibrils (Dahlgren et al., J. Biol. Chem. 277:32046-32053 (2002); Stine et al., J. Biol. Chem. 278:11612-11622 (2003), which are hereby incorporated by reference in their entirety). However, in some cases, β-amyloid1-42 was first dissolved in 100% hexafluoroisopropanolol to ensure the elimination of any preexisting aggregates ((Dahlgren et al., J. Biol. Chem. 277:32046-32053 (2002); Stine et al., J. Biol. Chem. 278:11612-11622 (2003), which are hereby incorporated by reference in their entirety) and then this solvent was removed by evaporation prior to reconstituting the peptide in Me2SO. Cells were incubated with the reconstituted β-amyloid1-42 for 48 hours and cell viability was then assayed by the reduction of 3-(4,5-dimethylthiazole-2-yl)-2,5-diphenyltetrazolium bromide (MTT), as previously described in Miller et al., Brain Res. 963:43-56 (2003), which is hereby incorporated by reference in its entirety. The effects of H2O2 (10-30 μM) on cell viability were assayed in a similar manner (Tamagno et al., Exp Neurol 180:144-155 (2003), which is hereby incorporated by reference in its entirety). Values for untreated controls were set at 100% viability and each treatment was assessed as a percentage of the control values (+/−SD). Each treatment was performed in triplicate and evaluated by using a one-way analysis of variation (ANOVA) with Turkey's post hoc analysis to determine differences between the groups with the a value set at 0.05."}, "[4]": {"target": "T1, guinea pig liver TGase (Cavia cutleri, UniProt P08587)", "T1 construct": "0.1 μg of guinea pig liver TGase (Sigma); purchased Sigma; host or cells: guinea pig liver", "T1 sequence (P08587 2-690)": "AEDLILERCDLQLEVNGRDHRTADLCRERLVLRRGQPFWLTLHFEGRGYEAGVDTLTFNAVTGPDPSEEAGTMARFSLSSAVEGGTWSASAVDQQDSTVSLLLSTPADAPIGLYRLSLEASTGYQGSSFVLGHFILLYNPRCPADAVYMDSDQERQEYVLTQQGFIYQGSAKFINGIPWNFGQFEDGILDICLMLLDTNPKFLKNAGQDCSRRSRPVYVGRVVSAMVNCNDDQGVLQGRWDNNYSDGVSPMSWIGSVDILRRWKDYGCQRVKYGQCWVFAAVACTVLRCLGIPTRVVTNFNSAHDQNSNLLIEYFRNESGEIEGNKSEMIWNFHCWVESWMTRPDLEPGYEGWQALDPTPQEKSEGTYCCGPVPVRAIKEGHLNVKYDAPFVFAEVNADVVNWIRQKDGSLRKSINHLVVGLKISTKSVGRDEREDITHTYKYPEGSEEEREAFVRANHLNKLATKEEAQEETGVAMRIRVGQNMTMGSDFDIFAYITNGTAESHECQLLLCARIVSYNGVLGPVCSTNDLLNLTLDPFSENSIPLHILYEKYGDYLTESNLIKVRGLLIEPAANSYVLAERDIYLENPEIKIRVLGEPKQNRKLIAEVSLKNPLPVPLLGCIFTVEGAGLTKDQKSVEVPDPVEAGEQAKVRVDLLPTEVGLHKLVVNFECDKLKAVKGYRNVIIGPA", "experiment": "In vitro transamidation (cross-linking) of β-amyloid1-42 by TGase, immunoblot", "type": "biochemical", "description": "FIGS. 11A-B illustrate examination of the cross-linking of β-amyloid by TGase.\nThe in vitro transamidation reactions were performed with one or all of the following: 1 μg of β-amyloid1-42, 0.1 μg of guinea pig liver TGase (Sigma), 500 μM CaCl2, and/or 50 μM MDC. Each reaction was performed in 50 mM Tris-HCl, pH 7.2, and incubated for 60 minutes at 37° C. The reactions were stopped by the addition of an equal volume of 20% SDS and 10 μl of Laemmeli's sample buffer and immediately boiled for 20 minutes to break up any non-covalent aggregation of β-amyloidi1-42. SDS-PAGE was performed on the samples, followed by blotting onto nitrocellulose membranes (Amersham). The membranes were immunoblotted with anti-β-amyloid antibody."}, "[5]": {"system": "c-Jun kinase (JNK)", "experiment": "c-Jun kinase (JNK) activity in β-amyloid-treated cells", "type": "cell-based, human", "conditions": "β-amyloid1-42-treated cells"}, "[6]": {"system": "TGase", "experiment": "TGase expression and level in SH-SY5Y cells and cell fractions (immunoblot)", "type": "cell-based, human", "description": "as §1, with “Cells were incubated with the reconstituted β-amyloid1-42 for 48 hours and cell viability was then assayed by the reduction of 3-(4,5-dimethylthiazole-2-yl)-2,5-diphenyltetrazolium bromide (MTT), as previously described in Miller et al., Brain Res. 963:43-56 (2003), which is hereby incorporated by reference in its entirety. The effects of H2O2 (10-30 μM) on cell viability were assayed in a similar manner (Tamagno et al., Exp Neurol 180:144-155 (2003), which is hereby incorporated by reference in its entirety).” left out, “(+/-SD).” for “(+/−SD).”, “0.05. SH-SY5Y cells, treated with and without β-amyloid1-42 for 48 hours, were lysed by freeze/thawing using liquid nitrogen in a 0.25 M sucrose solution containing 1 mM dithiothreitol, 1 μg/ml aprotinin, 1 μg/ml leupeptin and 100 μM phenylmethylsulfonyl fluoride. […]” for “0.05.”"}, "[7]": {"system": "SH-SY5Y cells", "experiment": "Nuclear condensation or blebbing apoptosis assay", "type": "cell-based, human", "conditions": "5 μM β-amyloid1-42, 48 hours; compared to control cells", "text": "Construction of the pcDNA3 Myc-tagged vector used herein has been described in Tu et al., J. Biol. Chem. 278:49293-49300 (2003), which is hereby incorporated by reference in its entirety. Insertion of the TGase cDNA into the vector was accomplished by performing BamHI and EcoRI restriction-site digestion of the previously generated pTRE TGase (wild-type) vector (Antonyak et al., J. Biol. Chem. 276:33582-33587 (2001), which is hereby incorporated by reference in its entirety) to excise the cDNA encoding wild-type TGase, followed by subcloning it into the pcDNA3 Myc-tagged vector using T4 DNA ligase (Invitrogen, Carlsbad, Calif.). The pcDNA3-Myc-TGase vector was used to generate the transamidation-defective (C277V) mutant with the Quikchange site-directed mutagenesis kit (Stratagene, La Jolla, Calif.). Each TGase construct was sequenced to confirm the presence or absence of the mutation. […]\nImmunofluorescence was also performed 48 hours after transient transfections with TGase constructs. […] Cells expressing the various TGase constructs were counted from three separate experiments (over 100 cells from each slide were scored) after β-amyloid1-42 treatment and the apoptotic rate was assessed relative to the percentage of apoptosis for untreated (transfected) cells. […]"}, "[8]": {"conditions": "H2O2 20 μM, 24 hours, RA-differentiated SH-SY5Y"}, "[9]": {"conditions": "2.5-10 μM β-amyloid1-42, 48 hours"}},
  "data": [
    {"compound": "OO", "note": "[H2O2, hydrogen peroxide]", "values": [
      {"measurement": "caspase activation", "setting": "[1]; 30 μM H2O2, 24 hours, RA-differentiated SH-SY5Y", "result": "resulted in caspase activation"},
      {"measurement": "cytosolic transamidation activity", "setting": "[2]; H2O2, 24 hours", "result": "significant increase"},
      {"measurement": "reduction of cell viability", "setting": "[3]; [8]", "result": "30-40%"}
    ]},
    {"compound": "CN(C)c1cccc2c(S(=O)(=O)NCCCCCN)cccc12", "note": "[MDC, monodansyl cadaverine]", "values": [
      {"measurement": "effect of MDC on β-amyloid1-42 activation of caspases", "setting": "[1]; β-amyloid1-42-treated cells", "result": "did not block"},
      {"measurement": "TGase-catalyzed oligomerization (transamidation) of β-amyloid1-42", "setting": "[4]; 50 μM MDC, 0.1 μg TGase, 1 μg BA, 500 μM Ca2+, 60 minutes", "result": "completely eliminated"},
      {"measurement": "effect of MDC on β-amyloid1-42 stimulation of c-Jun kinase (JNK) activity", "setting": "[5]", "result": "did not block"},
      {"measurement": "difference in cell viability in the presence or absence of MDC, 5 μM BA", "setting": "[3]; 25 μM MDC, 5 μM BA, 48 hours, p=0.027", "result": "significant difference"},
      {"measurement": "difference in cell viability in the presence or absence of MDC, 10 μM BA", "setting": "[3]; 25 μM MDC, 10 μM BA, 48 hours, p=0.022", "result": "significant difference"},
      {"measurement": "effect of MDC on H2O2-induced cytotoxicity", "setting": "[3]; [8]", "result": "greatly enhanced cytotoxicity"}
    ]},
    {"compound": "CC1=C(/C=C/C(C)=C/C=C/C(C)=C/C(=O)O)C(C)(C)CCC1", "note": "[RA, all-trans-retinoic acid]", "values": [
      {"measurement": "TGase expression", "setting": "[6]; 20 μM RA, SH-SY5Y in low serum media", "result": "significant up-regulation"}
    ]},
    {"compound": "β-amyloid1-42: most abundant and naturally occurring form of β-amyloid; HPLC-purified from American Peptide", "values": [
      {"measurement": "apoptotic response read out by caspase-3 activation", "setting": "[1]; oligomeric β-amyloid1-42, 37° C.", "result": "induced an apoptotic response"},
      {"measurement": "transamidation substrate for TGase in vitro", "setting": "[4]; Ca2+ levels below 1 mM", "result": "effective transamidation substrate"},
      {"measurement": "percentage of cells undergoing apoptosis", "setting": "[7]", "result": "increased"},
      {"measurement": "production of BPA conjugates (transamidation activity) in the membrane/particulate fractions", "setting": "[2]; [9]", "result": "marked enhancement"},
      {"measurement": "levels of TGase in the membrane/particulate fractions", "setting": "[6]; [9]", "result": "dramatically increased"},
      {"measurement": "TGase expression", "setting": "[6]; β-amyloid1-42 48 hours, absence or presence of RA", "result": "no effect"}
    ]}
  ]
}
